Measurements from PubChem BioAssay AID1918996 (Molecular Pharmacology Branch, DTP, NCI, 2023).

Tested on: 349418-098-R-PDC complex spheroid growth
Experiment: Anticancer human tumor 349418-098-R-PDC patient-derived lung adenocarcinoma cell line growth inhibition [AhR]
Conditions: for IC50: curve of first compound; for viability, T/C: stronger effect = lower value
From the text: Multicellular complex tumor spheroid response to aryl hydrocarbon receptor antagonists in combination with a variety of drugs and investigational agents in selected tumor cell lines
The current study was undertaken to assess response to aryl hydrocarbon receptor antagonists in combination with standard-of-care drugs and investigational agents in solid tumor complex spheroid models. Complex spheroids include a stromal component modeled by human endothelial cells (HUVEC) and fibroblasts modeled by human mesenchymal stem cells (MSCs). The concentration ranges selected for each drug and investigational agent were based upon clinically achievable concentrations if the clinical Cmax of the agent was known.
Compounds. The drugs and investigational agents: BAY 2416964 (NSC825713), GNF351 (NSC835774), CH-223191 (NSC835775), CPI-455 (NSC825282), aza-TdCyd (NSC777586), decitabine (NSC127716), belinostat (NSC758774), entinostat (NSC756642), pevonedistat (NSC761192), tazemetostat (NSC777109), talazoparib (NSC765396), olaparib (NSC753686), selinexor (NSC780203), nedisertib (M3814, NSC802822), bortezomib (NSC756655), venetoclax (NSC766270), doxorubicin (NSC123127), elimusertib (BAY189344, NSC800525), ceralasertib (AZD6738, NSC777638), TAK-243 (NSC785004), alisertib (NSC759677), etoposide (NSC141540), topotecan (NSC609699), eribulin (NSC707389), gemcitabine (NSC613327), carboplatin (NSC241240), cisplatin (NSC119875), and SN-38 (NSC673596) were obtained from the National Cancer Institute (NCI) Developmental Therapeutics Program Chemical Repository (32). The FDA-approved anticancer drug set is available from the Developmental Therapeutics Program at https://dtp.cancer.gov/organization/dscb/obtaining/available plates.htm. […] The stock solutions were prepared in dimethyl sulfoxide (DMSO, Sigma-Aldrich, St. Louis, MO, cat. D2650), except for the platinum compounds which were prepared in saline (Quality Biological, Gaithersburg, MD, cat. 114-055-101), at 800-fold the tested concentration and stored at -70 degrees C prior to their use. All drugs and investigational agents were tested over a range starting from a high concentration at or near the clinical Cmax and decreasing in half-log increments. If the clinical Cmax for an agent had not been determined, the highest concentration tested was 10 microM (Table 1).
Cell Culture. All cells were maintained in an incubator at 37 degrees C and 5% CO2 with 95% humidity. The PDC lines were cultured according to standard operating procedures established by the NCI PDMR (https://pdmr.cancer.gov). Briefly, all PDCs were thawed and cultured in Matrigel-coated flasks prepared with a working solution of 1X Ham's F-12 nutrient mix, without supplementation (Invitrogen, Waltham, MA, cat. 11765054), 100 U/mL penicillin-streptomycin (Invitrogen, cat. 15140122), and 2.5% Matrigel (Corning Inc., Corning, NY, cat. 354248) for the first three passages. All PDCs were cultured in complete DMEM/F-12 media containing advanced DMEM/F-12 (Invitrogen, cat. 12634028), 4.9% defined fetal bovine serum, heat inactivated (HyClone Laboratories Inc., Logan, UT, cat. SH30070.03HI), 389 ng/mL hydrocortisone (Sigma-Aldrich, cat. H4001), 9.7 ng/mL human EGF recombinant protein (Invitrogen, cat. PHG0313), 23.4 microg/mL adenine (Sigma-Aldrich, cat. A2786), 97.3 U/mL penicillin-streptomycin (Invitrogen, cat. 15140122), 1.9 mM L-glutamine (Invitrogen, cat. 25030081), and 9.7 microM Y-27632 dihydrochloride (Tocris Bioscience, Bristol, United Kingdom, cat. 1254). The PDCs were cultured in complete DMEM/F12 media without 10 microM Y-27632 dihydrochloride for at least two passages prior to the screen. The established cell lines NCI-H1341 and […] were cultured in DMEM/F-12, HEPES (Invitrogen, cat. 11330032), 5% defined fetal bovine serum (HyClone Laboratories Inc., cat. SH30070.03), ITS premix universal culture supplement [insulin (5 microg/mL), transferrin (5 microg/mL), and selenious acid (5 ng/mL)] […]

[1] = second compound 0.1 µM, first compound 0.0316 µM
[2] = second compound 0.1 µM, first compound 0.1 µM
[3] = second compound 0.1 µM, first compound 0.316 µM
[4] = second compound 0.1 µM, first compound 1 µM
[5] = second compound 0.1 µM, first compound 3.16 µM
[6] = second compound 0.1 µM, first compound 10 µM
[7] = second compound 0.316 µM, first compound 0.0316 µM
[8] = second compound 0.316 µM, first compound 0.1 µM
[9] = second compound 0.316 µM, first compound 0.316 µM
[10] = second compound 0.316 µM, first compound 1 µM
[11] = second compound 0.316 µM, first compound 3.16 µM
[12] = second compound 0.316 µM, first compound 10 µM
[13] = second compound 1 µM, first compound 0.0316 µM
[14] = second compound 1 µM, first compound 0.1 µM
[15] = second compound 1 µM, first compound 0.316 µM
[16] = second compound 1 µM, first compound 1 µM
[17] = second compound 1 µM, first compound 3.16 µM
[18] = second compound 1 µM, first compound 10 µM
[19] = second compound 3.16 µM, first compound 0.0316 µM
[20] = second compound 3.16 µM, first compound 0.1 µM
[21] = second compound 3.16 µM, first compound 0.316 µM
[22] = second compound 3.16 µM, first compound 1 µM
[23] = second compound 3.16 µM, first compound 3.16 µM
[24] = second compound 3.16 µM, first compound 10 µM
[25] = second compound 10 µM, first compound 0.0316 µM
[26] = second compound 10 µM, first compound 0.1 µM
[27] = second compound 10 µM, first compound 0.316 µM
[28] = second compound 10 µM, first compound 1 µM
[29] = second compound 10 µM, first compound 3.16 µM
[30] = second compound 10 µM, first compound 10 µM
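Further: spheroids exposed to agents for seven days before luminescence viability read.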
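Wherever viability, T/C is given: spheroids also contain HUVEC endothelial cells and human MSC stroma.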

Row | IC50 (second compound 0.1 µM) [µM] | IC50 (second compound 0.316 µM) [µM] | IC50 (second compound 1 µM) [µM] | IC50 (second compound 3.16 µM) [µM] | IC50 (second compound 10 µM) [µM] | Compound | viability, T/C [1] [%] | viability, T/C [2] [%] | viability, T/C [3] [%] | viability, T/C [4] [%] | viability, T/C [5] [%] | viability, T/C [6] [%] | viability, T/C [7] [%] | viability, T/C [8] [%] | viability, T/C [9] [%] | viability, T/C [13] [%] | viability, T/C [14] [%] | viability, T/C [19] [%] | viability, T/C [20] [%] | viability, T/C [25] [%] | viability, T/C [26] [%] | also measured
1 | 6.64 | 4.53 | 5.47 | 3.02 | < 0.0316 | CC1(C)CCC(CN2CCN(c3ccc(C(=O)NS(=O)(=O)c4ccc(NCC5CCOCC5)c([N+](=O)[O-])c4)c(Oc4cnc5[nH]ccc5c4)c3)CC2)=C(c2ccc(Cl)cc2)C1 + CC(CO)NC(=O)c1cc(-c2ccc(Cl)cc2)nn(-c2cnn(C)c2)c1=O | 77.7 | 89.9 | 96.2 | 76.9 | 82.5 | 32.2 | 85.2 | 81.1 | 70.2 | 89.3 | 97.4 | 80 | 86.8 | 45 | 54.1 | viability, T/C [10]: 66.9%; viability, T/C [11]: 65.9%; viability, T/C [12]: 27.8%; viability, T/C [15]: 80%; viability, T/C [16]: 65%; viability, T/C [17]: 79.2%; viability, T/C [18]: 28.2%; viability, T/C [21]: 77%; viability, T/C [22]: 71.4%; viability, T/C [23]: 49%; viability, T/C [24]: 24%; viability, T/C [27]: 48.9%; viability, T/C [28]: 48.5%; viability, T/C [29]: 48.2%; viability, T/C [30]: 26.6%
2 | 0.0925 | 0.0474 | 0.107 | 0.0473 | < 0.0316 | COc1cc(Nc2ncc3c(n2)-c2ccc(Cl)cc2C(c2c(F)cccc2OC)=NC3)ccc1C(=O)O + CC(CO)NC(=O)c1cc(-c2ccc(Cl)cc2)nn(-c2cnn(C)c2)c1=O | 66.3 | 49.3 | 33.4 | 37.4 | 31.7 | 23.1 | 58.7 | 33.7 | 29.5 | 71.9 | 51.3 | 55.2 | 41.3 | 38.4 | 23.4 | viability, T/C [10]: 29.2%; viability, T/C [11]: 28.1%; viability, T/C [12]: 26%; viability, T/C [15]: 27.8%; viability, T/C [16]: 31.3%; viability, T/C [17]: 29.5%; viability, T/C [18]: 32%; viability, T/C [21]: 32.8%; viability, T/C [22]: 28%; viability, T/C [23]: 28.8%; viability, T/C [24]: 29.7%; viability, T/C [27]: 32%; viability, T/C [28]: 24.8%; viability, T/C [29]: 20.9%; viability, T/C [30]: 24.2%
3 | > 0.1 | > 0.1 | > 0.1 | 0.0143 | 0.00421 | Cn1ncnc1C1c2n[nH]c(=O)c3cc(F)cc(c23)NC1c1ccc(F)cc1 (stereo not given) + CC(CO)NC(=O)c1cc(-c2ccc(Cl)cc2)nn(-c2cnn(C)c2)c1=O | 84.9 | 87.3 | – | – | – | – | 48 | 60.1 | – | 51.2 | 56.8 | 37.6 | 45.3 | 32.4 | 39.2 | viability, T/C (second compound 0.1 µM, first compound 0.000316 µM): 81.4%; viability, T/C (second compound 0.1 µM, first compound 0.001 µM): 85.1%; viability, T/C (second compound 0.1 µM, first compound 0.00316 µM): 94%; viability, T/C (second compound 0.1 µM, first compound 0.01 µM): 96.2%; viability, T/C (second compound 0.316 µM, first compound 0.000316 µM): 71.8%; viability, T/C (second compound 0.316 µM, first compound 0.001 µM): 84.4%; viability, T/C (second compound 0.316 µM, first compound 0.00316 µM): 60.6%; viability, T/C (second compound 0.316 µM, first compound 0.01 µM): 76.3%; viability, T/C (second compound 1 µM, first compound 0.000316 µM): 78.1%; viability, T/C (second compound 1 µM, first compound 0.001 µM): 106%; viability, T/C (second compound 1 µM, first compound 0.00316 µM): 83.9%; viability, T/C (second compound 1 µM, first compound 0.01 µM): 52.2%; viability, T/C (second compound 3.16 µM, first compound 0.000316 µM): 83.1%; viability, T/C (second compound 3.16 µM, first compound 0.001 µM): 68.9%; viability, T/C (second compound 3.16 µM, first compound 0.00316 µM): 55.7%; viability, T/C (second compound 3.16 µM, first compound 0.01 µM): 61%; viability, T/C (second compound 10 µM, first compound 0.000316 µM): 39.9%; viability, T/C (second compound 10 µM, first compound 0.001 µM): 64.7%; viability, T/C (second compound 10 µM, first compound 0.00316 µM): 59.8%; viability, T/C (second compound 10 µM, first compound 0.01 µM): 35.2%
4 | 0.188 | 0.149 | 0.107 | 0.0494 | < 0.0316 | NS(=O)(=O)OCC1CC(n2ccc3c(NC4CCc5ccccc54)ncnc32)CC1O (stereo not given) + CC(CO)NC(=O)c1cc(-c2ccc(Cl)cc2)nn(-c2cnn(C)c2)c1=O | 83.2 | 65.6 | 37.1 | 18.4 | 13.4 | 8.51 | 92.7 | 62.9 | 24.7 | 68.8 | 52.2 | 54.8 | 42.6 | 33.8 | 30.9 | viability, T/C [10]: 19.9%; viability, T/C [11]: 11.2%; viability, T/C [12]: 8.21%; viability, T/C [15]: 24.5%; viability, T/C [16]: 16.3%; viability, T/C [17]: 10.8%; viability, T/C [18]: 9.16%; viability, T/C [21]: 22.7%; viability, T/C [22]: 14.7%; viability, T/C [23]: 10.7%; viability, T/C [24]: 8.74%; viability, T/C [27]: 25.7%; viability, T/C [28]: 16.7%; viability, T/C [29]: 10.9%; viability, T/C [30]: 8.91%
